Assays:
THP-1 = experiment: Cytotoxicity against LPS-primed human PMA-differentiated THP-1 cells 2.5 to 5 uM by CytoTox 96 Non-Radioactive assay; type: cell-based; settings: dose 2.5-5 µM
[1] = In vivo inhibition of NLRP3 inflammasome activation in C57BL/6 mouse assessed as survival rate at 50 mg/kg, ip pretreated for 1 hr followed by LPS-treatment and measured every 12 hrs for 48 hrs relative to control; type: functional; settings: C57BL/6, ip, time 49 hrs
[2] = In vivo inhibition of NLRP3 inflammasome activation in C57BL/6 mouse assessed as mortality rate at 50 mg/kg, ip pretreated for 1 hr followed by LPS-treatment and measured every 12 hrs for 48 hrs (reference value: 100%); type: functional; settings: C57BL/6, ip, 61 h

COc1c(/C=C/C(=O)c2ccccc2)cc(OC)c2occc12
Activity (THP-1): Non-Toxic | survival at 50 mg/kg [1]: 100% | mortality at 50 mg/kg [2]: 24%

Source: ChEMBL document CHEMBL4699526, “Flavonoids with Inhibitory Effects on NLRP3 Inflammasome Activation from Millettia velutina” (J Nat Prod, 2020)
